Results taken from US9820483B2, “Microbial composition” (Rohm and Haas Company, priority 2011, dated 2017).

Key:
[1] = tested on: E. coli ATCC #10536; assay: Synergy test: high resolution MBC microtiter plate assay in phosphate buffer containing 35% dipropylene glycol, 15 seconds contact; assay type: cell-based, Escherichia coli; settings: E. coli 10536, complete kill in 15 seconds, phosphate buffer with 35% DPG
Excerpt: One measure of synergy is the industrially accepted method described by Kull, F. C.; Eisman. P. C.; Sylwestrowicz, H. D. and Mayer, R. L., in Applied Microbiology 9:538-541 (1961), using the ratio determined by the formula: Qa/QA÷Qb/QB=Synergy Index (“SI”) wherein: QA=concentration of compound A (first component) in percent, acting alone, which produced an end point (MBC of Compound A). […]=concentration of compound A in percent, in the mixture, which produced an end point. QB=concentration of compound B (second component) in percent, acting alone, which produced an end point (MBC of Compound B). Qb=concentration of compound B in percent, in the mixture, which produced an end point.
When the sum of Qa/QA and Qb/QB is greater than one, antagonism is indicated. […] The lower the SI, the greater is the synergy shown by that particular mixture. The minimum biocidal concentration (MBC) of a microbicide is the lowest concentration tested under a specific set of conditions that provides complete kill of the tested microorganisms.
Synergy tests were conducted using standard microtiter plate assays with phosphate buffer containing 35% dipropylene glycol (DPG). In this method, a wide range of combinations of chemicals was tested by conducting high resolution MBC assays of Component (A) in the presence of various concentrations of Component (B). High resolution MBCs were determined by adding varying amounts of microbicide to one column of a microtiter plate and doing subsequent ten-fold dilutions using an automated liquid handling system to obtain a series of closely spaced endpoints. The MBC plate was inoculated one column at a time with the test microorganism. An aliquot of the inoculated well was transferred at 15 seconds to a plate containing a neutralizing agent (D/E Neutralizing Broth), mixed and held for 5 minutes before being transferred to a growth plate containing trypticase soy broth (TSB). The TSB plate was incubated at 37° C. and read for the presence/absence of growth at 24 hours. The lowest level tested that provided complete kill (as evidenced by no growth in the microtitre plate) of the test organisms in 15 seconds is the minimum biocidal concentration (MBC).
The synergy of the combinations of the present invention was determined against a bacterium, Esherichia coli (E. coli—ATCC #10536), at a concentration of approximately 1×10^8 bacteria per mL. This microorganism is representative of natural contaminants in many consumer and industrial applications.

[2] = tested on: Staphylococcus aureus (10788 strain); assay: Antimicrobial efficacy of actives against S. aureus in water, 15 seconds contact, NMBS; assay type: cell-based
Method: Selected materials were also tested against a representative Gram positive Staphylococcus aureus.
The following assay describes the testing of 8 materials using 6 dilutions across half of a 96-well micro titre plate (MTP). Using this approach it is possible to assay 16 actives (without replicates) with one full dilution plate, replicating this set up in two halves of the plate columns, 1-6 and 7-12.
Bacterial stock (30 μl) was then added to the prepared 270 μl of the solution of actives in the Screening Plate and mixed, using a multichannel pipette with 8 tips to aspirate and dispense the same volume of bacterial stock in parallel to 8 wells in rows A-H. After a contact time of 15 seconds, the mixtures were quenched by transferring 30 μl volumes of the mixtures into the 270 μl D/E neutralising solution in the prepared dilution plate, using aspiration to mix. After exactly 5 minutes in the D/E neutralising solution, […] were transferred from column 1 to column 2 of the Dilution MTP and mixed, before transferring further 30 μl volumes from column 2 into column 3. This process was repeated serially diluting the bacteria across the plate to column 6.
30 μl volumes from each well in the Dilution MTP were transferred onto pre-labelled segment of Tryptone Soya Agar (TSA) plates starting from the lowest bacterial concentration (highest dilution, column 6) to the highest bacterial concentration (column 1). The TSA plates were allowed to stand for ca. 2 hours so that the 30 μl inocula spots could dry and the plates were then inverted and incubated overnight at 37° C. before enumerating the bacterial colonies at the labelled dilutions to determine the effects of the actives on bacterial growth.
Mean bacterial survival numbers NMBS (expressed in Log CFU/ml) are obtained by first determining the segment of the TSA plate where the number of bacterial colonies is countable. From the colony number in this segment. NMBS is calculated by the formula: NMBS=log {Ncol·10^DF·100/3} Here, Ncol is the colony count, and DF is the dilution factor taken from the MTP-well corresponding to the TSA plate segment (i.e. DF may range from 1 for the quench, to 6 for the highest dilution). The factor 100/3 is a conversion factor from the volume of the inocula spot to one milliliter.
Every assay test was performed in triplicate.
Thus, a value of NMBS as of about 7 corresponds to a count of about […] from the fifth dilution well, i.e. with DF=5. Such a count of about 7 is generally observed when bacteria are exposed to non-biocidal materials. In case no surviving colonies are observed in any segment of the TSA plate, this is interpreted as complete kill and a value of NMBS=0 is reported.
S. aureus Bacterial stock was prepared as shown below and the antibacterial efficacy of the active was carried out as explained earlier for E. Coli.
An overnight culture of Staphylococcus aureus (10788 strain) was inoculated onto a Tripticase Soy Agar (TSA) plate and grown for ca. 18 hrs at 37° C. The culture of S. aureus was washed from the plate using sterile saline (0.85% NaCl) solution and a sterile spreader and suspended in 50 ml saline. This suspension was separated into equal volumes and centrifuged at 4000 rpm for 15 minutes. Following centrifugation the pellet was re-suspended in saline to give a final concentration of 0.35 OD620 equivalent to about 10^8 cells per milliliter for this particular organism. Here. OD620 indicates the absorbance of a sample in a cuvette of 1.0 cm path length at a wavelength of 620 nm. This bacterial stock was used for assaying against antimicrobial actives (in triplicate).

[3] = tested on: S. aureus ATCC 6538; assay: Synergy of terpinyl alcohols with phenolic compounds in water, 15 seconds contact, plate count log reduction; assay type: cell-based, Staphylococcus aureus; settings: […] alone
Method: Liquid actives were used directly. Solid actives were dissolved in alcohol and a 50% stock was made.
The culture was grown overnight in Tryptone soya agar. It was suspended in saline (0.85% NaCl) to a con. of 1.5×10^8-5×10^8 cells/ml
To 9 ml water the actives were added to give the desired concentration. 1 ml of the culture was added and mixed. After 15 seconds contact 1 ml aliquot was removed and added to a neutraliser and kept for 5 minutes. A control of untreated cells was similarly processed. It was then diluted and plated. The plates were incubated at 37° C. for 24 hours. The colonies on the plates were counted. The counts were converted to log10. The log. no. of survivors was determined and log reduction calculated.

C=C(C)C1CCC(C)C(O)C1 (stereo not shown) [2-methyl-5-(prop-1-en-2-yl)cyclohexanol]
MBC of the component acting alone (QA or QB; Qa or Qb with the other component at 0) [1]: 0.5 weight %
NMBS ([2]; 0.5% w/v alone, S. aureus, 15 s): 7.34 log CFU/ml
MBC ([2]; component alone, against S. aureus, in water): >1.5 % w/v
Log reduction S. aureus ATCC 6538 [3]: −0.15
